{"source": "BindingDB's records for doi:10.1021/acsmedchemlett.8b00532", "about": "(Sapienza University of Rome, 2019)", "assay": "Inhibition of NHERF1 in human SW620 cells expressing NHERF1 assessed as inhibition cell growth incubated for 72 hrs by MTT assay", "data": [{"smiles": "Cc1cc([N+](=O)[O-])ccc1NS(=O)(=O)c1cc(Cl)ccc1Cl", "values": [{"measurement": "IC50", "result": 19, "unit": "µM"}]}]}
